Test system: CD8+ T cells from people without HIV
Test: In vitro reprogramming of bulk CD8+ T cells, phenotype without further stimulation
Assay type: cell-based, human
Protocol: FIG. 1. Induction of stem-like CD8^+ T cells with high survival capacity and polyfunctionality by in vitro reprogramming. A. CD8^+ T cells from people without HIV were incubated with medium, vehicle control, or a GSK3 inhibitor, for 12 hs and the phenotype was evaluated by flow cytometry. A representative donor from a total of 4 is shown. B. Frequencies of CD8^+ T cell subpopulations after each treatment. C. Fold change of CD8^+ T cell subpopulations after treatment with vehicle control or a GSK3 inhibitor, relative to medium alone condition (n=4). D. Expression of TCF-1 in CD8^+ T cell subpopulations (n=4). E. The expression of the indicated markers in cells pre-treated with vehicle control or a GSK3 inhibitor was evaluated by flow cytometry. The fold change in the expression induced by 48 hs anti-CD3/CD28 stimulation, relative to unstimulated cells, is shown (n=5). F. Left: Flow cytometry analysis of dead cells (Aqua Live/Dead^+) among total and T-bet+CD8^+ T cells. Right: Fold change in dead CD8^+ T cells induced by anti-CD3/CD28 stimulation, relative to the unstimulated condition (n=5). G. Frequencies of granzyme B^+, TL-2^+, IFN-γ^+, and TNF-α^+CD8^+ T cells after anti-CD3/CD28 stimulation. H. Expression of 1 to 4 functions in CD8^+ T cells after anti-CD3/CD28 stimulation (n=5). I. After reprogramming with the GSK3 inhibitor, CD8^+ T cells were stimulated for 48 hs with anti-CD3/CD28, followed by wash and resting for 5 days. Then, cells were restimulated for another 48 hs with anti-CD3/CD28. Left: Flow cytometry analysis of proliferating (CFSE dilution) CD8^+ T cells. Right: Frequencies of CD8^+ T cells with 0, 1-3 or ≥4 cell divisions (n=9). J. Frequency of the total HCMV pp65-specific CD8^+ T cell response (IFN-γ^+ or CD107a^+ or TNF-α^+), after vehicle control or GSK3 inhibitor treatment, followed by HCMV pp65 peptides stimulation for 6 hs (n=6). K. Frequencies of CD8^+ T cell subpopulations among HCMV pp65-specific CD8^+ T cells (n=6). L. Expression of IFN-γ, CD107a, and TNF-α in HCMV pp65-specific CD8^+ T cells (n=6). M. Frequency of the total HCMV pp65-specific CD8^+ T cell response after HCMV pp65 peptides stimulation for 6 days (n=6). *P<0.05; **P≤0.01. NS: Not statistically significant. TSCM: Stem cell memory; TCM: Central memory; TTM: Transitional memory; TEM: Effector memory; TTE: Terminal effector.
FIG. 2. A. Flow cytometry gating strategy used to identify CD8^+ T cell subpopulations: Naïve, Stem cell memory (TSCM), Central memory (TCM), Transitional memory (TTM), Effector memory (TEM), and Terminal effector (TTE). B. Expression of CCR7, CD27 and TCF-1 in total CD8^+ T cells after treatment with vehicle control, or the GSK3 inhibitors BIO or TWS119, for 12 hs. The median fluorescence intensity of each marker is depicted. C. Fold change in TSCM, TCM and TEM cells induced by BIO or TWS119, relative to vehicle control (n=3 people without HIV). D. Fold change in T-bet^+ cells among TSCM and TCM induced by anti-CD3/CD28 stimulation, relative to vehicle control, in cells previously treated with vehicle control, BIO or TWS119 (n=3). E. Fold change in T-bet^+ cells among naïve/TSCM induced by anti-CD3/CD28 stimulation (0.2 and 1 μg/mL), relative to unstimulated cells, previous treatment with vehicle control or the GSK3 inhibitor (n=3). F. Fold change in T-bet^+ cells among each CD8^+ T cell subpopulation induced by anti-CD3/CD28+ICAM-1 stimulation, relative to unstimulated cells (n=5). G. Frequency of IL-2^+TNF-α^+ cells among each CD8^+ T cell subpopulation after anti-CD3/CD28+ICAM-1 stimulation (n=5). H. Correlation between the frequency of PD-1^+LAG-3^+TIM3^+TIGIT^+CD8^+ T cells and the proportion of CD8^+ T cells with ≥4 cell divisions after restimulation (n=6). I. After reprogramming with the GSK3 inhibitor, CD8^+ T cells were left unstimulated, stimulated once for 48 hs with anti-CD3/CD28, or stimulated twice with anti-CD3/CD28. The expression of T-bet in TCM and TTM cells is shown (n=5). *P<0.05. […]

[1] = BIO and TWS119 in parallel, 3 μM, 12 hs, FIG. 2C

SMILES: O=C1Nc2cc(Br)ccc2/C1=C1/Nc2ccccc2/C1=N\O [BIO, 6-bromoindirubin-3′-oxime]
- expression of TCF-1 (3 μM, 12 hs, FIG. 1D): enhanced expression
- CD8+ T cells with stem cell memory (TSCM) and central memory (TCM) phenotype (3 μM, 12 hs, FIGS. 1A-C): enrichment
- effector memory (TEM) and terminal effector (TTE) cells (3 μM, 12 hs, FIGS. 1A-C): decrease
- surface expression of CCR7 and CD27 (3 μM, 12 hs, absence of further stimulation, FIG. 1A): upregulation
- CCR7, CD27, and TCF-1 (BIO and TWS119 in parallel, 3 μM, 12 hs, FIG. 2B): induced
- TEM cells [1]: decrease
- TSCM and TCM cells [1]: increase
- effect compared between the two GSK3 inhibitors (FIGS. 2B and C): greater effect than TWS119
